Assay results taken from patent US20100204142A1, “USE OF THE PEPTIDE PHPFHLFVY (RENIN INHIBITOR) AS A THERAPEUTIC AGENT” (priority 2007, published 2010).
Where no end group is shown, it is not given here.

System: drug-resistant Mycobacterium tuberculosis
Conditions: drug-resistant Mycobacterium tuberculosis growth; peptide 10 micrograms per ml; seven days

Substance: PHPFHLFVY-OH [Renin inhibitor]
- % inhibition: 0.0%
